Conditions: 0.9 mg/mL in neat DMSO; 40° C.; six weeks; N=3
Procedure: Sample solutions (N=3) were prepared by solubilizing the lyophilized powder directly in neat DMSO to a concentration of 0.9 mg/mL pramlintide acetate. To test formulation stability in the polar aprotic solvent, the samples (N=3) were stored in sealed glass vials at 40° C. for six weeks.

**Q.** For Pramlintide acetate, which “appearance of sample solutions after storage” value is on record?
**A.** The value was “clear and absent of precipitation and visible aggregates”.
